For the test, the target named is T1, human mPGES-1 (Homo sapiens, UniProt O14684).
T1 construct: made in house; host or cells: COS-1 cells (transient transfection; microsomal fraction used as enzyme)
T1 sequence (O14684 1-152): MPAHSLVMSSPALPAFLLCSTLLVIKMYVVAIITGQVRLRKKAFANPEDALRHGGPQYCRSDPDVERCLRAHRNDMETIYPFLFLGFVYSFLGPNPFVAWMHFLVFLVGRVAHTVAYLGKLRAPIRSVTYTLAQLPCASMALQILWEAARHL
As to the kind of experiment: Test for mPGES-1 inhibitory activity (microsomal enzyme, PGE2 EIA). The class given is biochemical. As to conditions: 4° C., 4 minutes, read-out: h mPGES1 IC50. The method, then: Test Example 1: Test for mPGES-1 Inhibitory Activity
Microsomes were prepared from COS-1 cells transiently transfected with a plasmid containing human mPGES-1 cDNA, and used as mPGES-1 enzyme. The mPGES-1 enzyme was diluted with a sodium phosphate buffer (pH 7.2) containing reduced glutathione (2.5 mM) and EDTA (1 mM), DMSO or a DMSO solution of a test compound (final concentration of DMSO was 2%) was added to the enzyme, and the mixture was preincubated at 4° C. for 15 minutes. Then, PGH2 (Prostaglandin H2) as the substrate was added at a final concentration of 1 μM to start the enzymatic reaction, and after incubation at 4° C. for 4 minutes, a solution of ferric chloride (25 mM) and citric acid (50 mM) was added to terminate the enzymatic reaction. Generated PGE2 (Prostaglandin E2) was measured by using Prostaglandin E2 Express EIA Kit (Cayman Chemical). IC50 values were determined by using a standard method.

The mark [1] stands for this setting: microsomes from COS-1 cells transfected with human mPGES-1 cDNA, substrate PGH2 1 μM, PGE2 measured by EIA.
The mark [2] stands for this setting: microsomes of COS-1 cells transfected with human mPGES-1 cDNA, PGH2 1 μM, PGE2 by EIA.

Read-outs that look alike come from different tables or passages of the source.

A word on the IC50: it is the concentration that gives 50% inhibition.

Take `O=C(NCc1ccc(C(F)(F)F)c(-c2nc(C(F)(F)F)cc(=O)[nH]2)c1F)C1CCN(c2cnc(C(F)(F)F)cn2)CC1` [Example 36, N-{2-fluoro-3-[6-oxo-4-(trifluoromethyl)-1,6-dihydropyrimidin-2-yl]-4-(trifluoromethyl)benzyl}-1-[5-(trifluoromethyl)pyrazin-2-yl]piperidine-4-carboxamide]: the IC50 under setting [1] came out at 14 nM.

Consider `O=c1cc(C(F)F)nc(-c2c(C(F)(F)F)ccc(CNC(=O)[C@H]3C[C@H](OCc4ccc(F)c(Cl)c4)C3)c2F)[nH]1` [Example 176, trans-3-[(3-chloro-4-fluorobenzyl)oxy]-N-{3-[4-(difluoromethyl)-6-oxo-1,6-dihydropyrimidin-2-yl]-2-fluoro-4-(trifluoromethyl)benzyl}cyclobutane-1-carboxamide], for which the IC50 under setting [2] is less than 1 nM.

For the compound `O=c1cc(C(F)F)nc(-c2c(C(F)(F)F)ccc(CNC(=O)[C@H]3C[C@H](OCc4cccc(C(F)(F)F)c4)C3)c2F)[nH]1` [Example 165, trans-N-{3-[4-(difluoromethyl)-6-oxo-1,6-dihydropyrimidin-2-yl]-2-fluoro-4-(trifluoromethyl)benzyl}-3-{[3-(trifluoromethyl)benzyl]oxy}cyclobutane-1-carboxamide], the IC50 under setting [2] was less than 1 nM.

For `Cc1nc(-c2c(C(F)(F)F)ccc(CNC(=O)[C@H]3C[C@H](OCc4ccc(Cl)cc4)C3)c2F)[nH]c(=O)c1F` [Example 214, trans-3-[(4-chlorobenzyl)oxy]-N-[2-fluoro-3-(5-fluoro-4-methyl-6-oxo-1,6-dihydropyrimidin-2-yl)-4-(trifluoromethyl)benzyl]cyclobutane-1-carboxamide], the IC50 under setting [2] turned out to be 8.6 nM.

For the compound `CCc1cc(=O)[nH]c(-c2c(C(F)(F)F)ccc(CNC(=O)[C@H]3C[C@H](OCc4ccc(F)cc4F)C3)c2F)n1` [Example 201, trans-3-[(2,4-difluorobenzyl)oxy]-N-[3-(4-ethyl-6-oxo-1,6-dihydropyrimidin-2-yl)-2-fluoro-4-(trifluoromethyl)benzyl]cyclobutane-1-carboxamide], under setting [2], the IC50 is less than 1 nM.

For the compound `Cc1nc(-c2c(C(F)(F)F)ccc(CNC(=O)[C@H]3C[C@H](OCc4cc(F)cc(Cl)c4)C3)c2F)[nH]c(=O)c1F` [Example 228, trans-3-[(3-chloro-5-fluorobenzyl)oxy]-N-[2-fluoro-3-(5-fluoro-4-methyl-6-oxo-1,6-dihydropyrimidin-2-yl)-4-(trifluoromethyl)benzyl]cyclobutane-1-carboxamide], the IC50 under setting [2] was less than 1 nM.

Consider `Cc1cc(=O)[nH]c(-c2c(C(F)(F)F)ccc(CNC(=O)[C@H]3CC[C@H](OCc4ccc(F)c(F)c4)CC3)c2F)n1` [Example 107, trans-4-[(3,4-difluorobenzyl)oxy]-N-[2-fluoro-3-(4-methyl-6-oxo-1,6-dihydropyrimidin-2-yl)-4-(trifluoromethyl)benzyl]cyclohexane-1-carboxamide], for which the half-inhibitory concentration (IC50) under setting [1] was determined as 13 nM.

On to `Cc1nc(-c2c(C(F)(F)F)ccc(CNC(=O)[C@H]3CC[C@H](OCc4ccc(Cl)cc4F)CC3)c2F)[nH]c(=O)c1F` [Example 128, trans-4-[(4-chloro-2-fluorobenzyl)oxy]-N-[2-fluoro-3-(5-fluoro-4-methyl-6-oxo-1,6-dihydropyrimidin-2-yl)-4-(trifluoromethyl)benzyl]cyclohexane-1-carboxamide], for which, under setting [1], the IC50 worked out at 13 nM.

As to `CCc1nc(-c2c(C(F)(F)F)ccc(CNC(=O)[C@H]3C[C@H](OCc4cccc(Cl)c4)C3)c2F)[nH]c(=O)c1F` [Example 230, trans-3-[(3-chlorobenzyl)oxy]-N-[3-(4-ethyl-5-fluoro-6-oxo-1,6-dihydropyrimidin-2-yl)-2-fluoro-4-(trifluoromethyl)benzyl]cyclobutane-1-carboxamide], the IC50 under setting [2] was less than 1 nM.

Regarding `O=c1cc(C(F)(F)F)nc(-c2c(C(F)(F)F)ccc(CNC(=O)[C@H]3CC[C@H](OCc4ccccc4Cl)CC3)c2F)[nH]1` [Example 99, trans-4-[(2-chlorobenzyl)oxy]-N-{2-fluoro-3-[6-oxo-4-(trifluoromethyl)-1,6-dihydropyrimidin-2-yl]-4-(trifluoromethyl)benzyl}cyclohexane-1-carboxamide], the half-maximal inhibitory concentration (IC50) under setting [1] was less than 1 nM.

`O=c1cc(C(F)F)nc(-c2c(C(F)(F)F)ccc(CNC(=O)[C@H]3C[C@H](OCc4cccc(Cl)c4)C3)c2F)[nH]1` [Example 162, trans-3-[(3-chlorobenzyl)oxy]-N-{3-[4-(difluoromethyl)-6-oxo-1,6-dihydropyrimidin-2-yl]-2-fluoro-4-(trifluoromethyl)benzyl}cyclobutane-1-carboxamide]: the IC50 under setting [2] is less than 1 nM.

Turning to `O=c1cc(C(F)(F)F)nc(-c2c(C(F)(F)F)ccc(CNC(=O)[C@H]3C[C@H](OCc4ccc(C(F)(F)F)cc4)C3)c2F)[nH]1` [Example 146, trans-N-{2-fluoro-3-[6-oxo-4-(trifluoromethyl)-1,6-dihydropyrimidin-2-yl]-4-(trifluoromethyl)benzyl}-3-{[4-(trifluoromethyl)benzyl]oxy}cyclobutane-1-carboxamide], the half-inhibitory concentration (IC50) under setting [2] was 2.1 nM.

Consider `CCc1nc(-c2c(C(F)(F)F)ccc(CNC(=O)[C@H]3C[C@H](OCc4cccc(F)c4)C3)c2F)[nH]c(=O)c1F` [Example 239, trans-N-[3-(4-ethyl-5-fluoro-6-oxo-1,6-dihydropyrimidin-2-yl)-2-fluoro-4-(trifluoromethyl)benzyl]-3-[(3-fluorobenzyl)oxy]cyclobutane-1-carboxamide], for which, under setting [2], the IC50 is less than 1 nM.

As for `Cc1cc(=O)[nH]c(-c2c(C(F)(F)F)ccc(CNC(=O)C3(F)CCN(c4ccc(C(F)(F)F)cn4)CC3)c2F)n1` [Example 56, 4-fluoro-N-[2-fluoro-3-(4-methyl-6-oxo-1,6-dihydropyrimidin-2-yl)-4-(trifluoromethyl)benzyl]-1-[5-(trifluoromethyl)pyridin-2-yl]piperidine-4-carboxamide], under setting [1], the IC50 amounted to 21 nM.

With `Cc1cccc2ccc(N3CCC(C(=O)NCc4ccc(C(F)(F)F)c(-c5nc(C(C)C)cc(=O)[nH]5)c4F)CC3)nc12` [Example 11, N-[2-fluoro-3-(4-isopropyl-6-oxo-1,6-dihydropyrimidin-2-yl)-4-(trifluoromethyl)benzyl]-1-(8-methylquinolin-2-yl)piperidine-4-carboxamide], the IC50 under setting [1] was less than 1 nM.

Turning to `Cc1nc(-c2c(C(F)(F)F)ccc(CNC(=O)[C@H]3C[C@H](OCc4cccc(F)c4F)C3)c2F)[nH]c(=O)c1F` [Example 223, trans-3-[(2,3-difluorobenzyl)oxy]-N-[2-fluoro-3-(5-fluoro-4-methyl-6-oxo-1,6-dihydropyrimidin-2-yl)-4-(trifluoromethyl)benzyl]cyclobutane-1-carboxamide], under setting [2], the IC50 was less than 1 nM.

With `Cc1nc(-c2c(C(F)(F)F)ccc(CNC(=O)[C@H]3C[C@H](OCc4ccc(Cl)cc4F)C3)c2F)[nH]c(=O)c1F` [Example 219, trans-3-[(4-chloro-2-fluorobenzyl)oxy]-N-[2-fluoro-3-(5-fluoro-4-methyl-6-oxo-1,6-dihydropyrimidin-2-yl)-4-(trifluoromethyl)benzyl]cyclobutane-1-carboxamide], under setting [2], the IC50 came to 15 nM.

For `O=C(NCc1ccc(C(F)(F)F)c(-c2nc(C(F)(F)F)cc(=O)[nH]2)c1F)C1(F)CCN(c2ccc(C(F)(F)F)cn2)CC1` [Example 38, 4-fluoro-N-{2-fluoro-3-[6-oxo-4-(trifluoromethyl)-1,6-dihydropyrimidin-2-yl]-4-(trifluoromethyl)benzyl}-1-[5-(trifluoromethyl)pyridin-2-yl]piperidine-4-carboxamide], the IC50 under setting [1] was determined as 7.8 nM.

Values taken from US20250340557A1, “PYRIMIDINE DERIVATIVE” (ASKA PHARMACEUTICAL CO., LTD., priority 2022, published 2025).
